From patent publication US11752099B2, “Injectable and biodegradable polymer formulations for controlled release of bioactive agents” (W. L. Gore & Associates, Inc., priority 2017, dated 2023)

Tested on: eyes of an animal subject
Details: in vivo
Protocol: The copolymer PLA:GA Resomer® RG 756 S, Poly(D,L-lactide-co-glycolide) purchased from Evonik Industries, Germany, was dissolved in 11 g of triacetin (Sigma-Aldrich, St. Louis) in 25 ml glass vials to obtain approximately a 6% solution by maintaining the mixture on a stir plate with a magnetic stir bar. The molecular weight was 76,000 for the PLGA polymer. The solution was processed aseptically through a 0.2 μm sterile filter into 1 ml syringes. Each syringe contained approximately 200 μl of formulation.
The polymer formulations were delivered into the eyes of an animal subject and each eye only received a single injection. […] The in-life period of the polymer formulation injections was approximately 90 days. Approximately every week the intraocular pressure (IOP) was measured.
At retrieval, the eyes were examined and inter ocular pressure (IOP) was obtained. The eyes were gently removed, examined, and fixed in Davidson's Solution for a minimum of 24 hours. Post fixation, the eyes were processed for histological analyses.
The tissue samples were processed to yield histological slides and were examined under microscope for inflammation. […]

| Substance | IOP immediately post-op | average normalized IOP values, relative to baseline before implantation (FIG. 10) | inflammation on histological slides | time for immediate rise in IOP to return to normal values [min] | visual examination of the eyes at retrieval | visual inspection with an ophthalmoscope (redness of the retina) |
| --- | --- | --- | --- | --- | --- | --- |
| D/L-PLA:TMC:PGA [Example 17] | much higher than the baseline | ≤ 100% | no inflammation was noted | ≤ 30 | no abnormalities observed | no redness of the retina |
| Poly(D,L-lactide-co-glycolide) [Resomer® RG 756 S, reference compound] | much higher than the baseline | above 100% | revealed inflammation | ≤ 30 |  | redness of the retina, a sign of inflammation, in one observation |
